Data taken from publication PMC7917639, “Nopol-Based Quinoline Derivatives as Antiplasmodial Agents” (Molecules, 2021).
Where “and” joins values, the source holds several entries; their conditions need not be identical. Equal values may be shown once. Read-outs that look alike come from different tables or passages of the source.

Key:
[1] = tested on: Human hepatocarcinoma cell line (Hep G2); test: Cytotoxicity assay (MTT); assay type: cell-based; settings: 72 h
Procedure: (§1) Human hepatocarcinoma cell line (Hep G2, ATCC CRL-11997TM) was used for cytotoxicity studies as previously described. The cells were grown in complete medium (DMEM:F12 containing L-glutamine and sodium bicarbonate, 10% FBS, 1% penicillin/streptomycin, Thermo Fisher Scientific) at 37 °C in 5% CO2 environment. Cells (198 µL, 5 × 10^5/mL) were seeded into 96-well plates and incubated overnight. The cells were treated with the compounds (160–1.25 µM, in triplicates) or DMSO (1%) for 72 h. The cell medium was removed and replaced with DMEM:F12 medium containing MTT (0.5 mg/mL) was added to the cells and incubated for 1.5 h. The MTT-containing medium was gently removed and replaced with DMSO (200 µL/well). The contents of each well were then repeatedly mixed with a multichannel pipette and incubated for 10 min. The plates were read at 570 nm. DMSO-treated (1%) cells were used as negative assay control and SDS (10%) was used as assay positive control. Percent cell viabilities were expressed as a percentage of the mean viability of DMSO-treated (1%) cells.

[2] = tested on: P. falciparum 3D7 (Pf3D7, chloroquine-sensitive strain); test: Pf3D7 asexual blood-stage growth inhibition, SYBR Green fluorescence assay; assay type: cell-based, Plasmodium falciparum; settings: for Pf3D7 selectivity index (SI, CC50/EC50): Hep G2 CC50 / Pf3D7 EC50; for EC50: read-out: Pf3D7 EC50; for Antiplasmodial activity against Pf3D7 (in words): chloroquine-sensitive strain
Procedure: a. Pf3D7: 100 μL of complete media (Sigma-Aldrich’s RPMI 1640, 25 mM HEPES, 10 μg/mL gentamicin, 0.5 mM hypoxanthine supplemented with NaHCO3 and 0.5% Albumax II, 37 °C) containing compounds (50–0.3 µM) or 100 µM chloroquine were added to 96 well plates in triplicates. This was followed by the addition of 100 µL erythrocytic asexual culture of Pf3D7 (10% hematocrit and 0.25% ring stage parasitemia), maintained at atmospheric conditions of 1% oxygen, 5% carbon dioxide, and 94% nitrogen, and allowed to grow for 96 h at 37 °C. The cultures were then frozen at −80 °C overnight and thawed at 37 °C for 4 h. Aliquots (100 µL) from each well were transferred to black 96-well plates, 100 μL of 2× SYBR Green (Molecular Probes) in lysis buffer (20 mM Tris at pH 7.5, 5 mM EDTA, 0.008% saponin, 0.08% Triton X-100) was added to each well and mixed thoroughly with a pipette. The plates were incubated in the dark at room temperature for 1 h and read at λex 485 nm and λem 530 nm. Infected and untreated red blood cells (iRBC) cultures served as negative control. Percent inhibitory activities were calculated using (=100 − 100*((Sample − 100 µM CQ)/(iRBC − 100 µM CQ)) and used to plot sigmoidal inhibition curves to obtain the EC50 values.

[3] = tested on: PfK1; test: PfK1 erythrocytic stage growth inhibition, [3H]-hypoxanthine incorporation assay; assay type: cell-based, Plasmodium falciparum; settings: for EC50: erythrocytic stages, 48 h + 24 h with 3H-hypoxanthine; for Antiplasmodial activity against K1 strain (in words): multidrug-resistant strain; for PfK1 selectivity index (SI, CC50/EC50): Hep G2 CC50 / PfK1 EC50
Procedure: b. PfNH54 and PfK1: The growth inhibitory activities of the compounds against erythrocytic stages of PfNH54 and PfK1 were determined using the [^3H]-hypoxanthine incorporation assay as previously reported. Parasites in RPMI 1640 medium containing […] (without hypoxanthine) were treated with compounds (50–0.3 µM) in 96 well plates for 48 h at 37 °C in 92% N2, 5% CO2, and 3% O2. ^3H-hypoxanthine (0.5 μCi) was added to each well, incubated for an additional 24 h, harvested onto glass-fiber filters, and washed with distilled water. Radioactivity at each compound concentration was counted using a Betaplate™ liquid scintillation counter (Wallac, Zurich), and the results were recorded as counts per minute (CPM) per well. The CPMs were expressed as a percentage of the CPMs from the untreated controls and used to estimate the EC50 from sigmoidal inhibition curves. Artemisinin and CQ were used as positive controls.

[4] = tested on: PfNF54; test: PfNF54 erythrocytic stage growth inhibition, [3H]-hypoxanthine incorporation assay; assay type: cell-based, Plasmodium falciparum; settings: for EC50: erythrocytic stages, 48 h + 24 h with 3H-hypoxanthine; for PfNF54 selectivity index (SI, CC50/EC50): Hep G2 CC50 / PfNF54 EC50
Procedure: b. PfNH54 and PfK1: The growth inhibitory activities of the compounds against erythrocytic stages of PfNH54 and PfK1 were determined using the [^3H]-hypoxanthine incorporation assay as previously reported. […] The CPMs were expressed as a percentage of the CPMs from the untreated controls and used to estimate the EC50 from sigmoidal inhibition curves. Artemisinin and CQ were used as positive controls.

[5] = Cytotoxicity assay (MTT); assay type: cell-based, Human; settings: human
Procedure: as §1

[6] = erythrocytic asexual culture, 96 h, SYBR Green
[7] = Plasmodium falciparum, 3D7, erythrocytic asexual culture, 96 h, SYBR Green
[8] = Plasmodium falciparum, 3D7, 96 h

SMILES | CC50 [1] [µM] | Pf3D7 selectivity index (SI, CC50/EC50) [2] | EC50 [2, 6] | EC50 [3] | Antiplasmodial activity against K1 strain (in words) [3] | EC50 [4] [µM] | further results
COc1ccc(NC(=O)CC2=CCC3CC2C3(C)C)c2ncccc12 (single isomer, unassigned) [Compound 1] | 70.8 ± 1.26 | 13.4 | 5.25 ± 0.7 µM | – | – | – | –
COc1ccc(NC(=O)CC2=CCC3CC2C3(C)C)c2ncccc12 (single isomer, unassigned) [Compound 2] | > 160 | > 58.8 | 2.72 ± 0.28 µM | – | – | – | –
CC1(C)C2CC=C(CC(=O)Nc3cccc4cccnc34)C1C2 (single isomer, unassigned) [Compound 3, 2-(6,6-dimethylbicyclo[3.1.1]hept-2-en-2-yl)-N-(quinolin-8-yl) Acetamide] | > 160 | > 73.1 | 2.19 ± 0.15 µM | > 50 µM | inactive | > 50 | Antiplasmodial activity against NF54 strain (in words) [4]: inactive
CC1(C)C2CC=C(CC(=O)Nc3cccc4cccnc34)C1C2 (single isomer, unassigned) [Compound 4, 2-(6,6-dimethylbicyclo[3.1.1]hept-2-en-2-yl)-N-(quinolin-8-yl) Acetamide] | > 160 | > 62.3 | 2.57 ± 0.02 µM | > 50 µM | inactive | > 50 | Antiplasmodial activity against NF54 strain (in words) [4]: inactive
Cc1cc(C(=O)OCCC2=CC[C@@H]3C[C@H]2C3(C)C)c2ccc(Cl)cc2n1 (stereo in doubt) [Compound 13, 2-((1S,5R)-6,6-dimethylbicyclo[3.1.1]hept-2-en-2-yl)ethyl-7-chloro-2-methylquinoline-4-carboxylate] | – | > 6.9 | – | – | – | – | CC50 at 72 h ([5]; read-out: Hep G2 CC50): > 160 µM; EC50 [2, 7]: 23 ± 2 µM; Antiplasmodial activity against Pf3D7 (in words) [2]: very weak antiplasmodial activity
CC1(C)[C@@H]2CC=C(CCOC(=O)c3cc4ccccc4nc3Cl)[C@H]1C2 (stereo in doubt) [Compound 14, 2-((1S,5R)-6,6-dimethylbicyclo[3.1.1]hept-2-en-2-yl)ethyl-2-chloroquinoline-3-carboxylate] | – | 13.6 | – | – | inactive | – | Antiplasmodial activity against NF54 strain (in words) [4]: inactive; CC50 at 72 h ([5]; read-out: Hep G2 CC50): 55.2 ± 1.2 µM; EC50 [2, 7]: 4.04 ± 0.03 µM; Antiplasmodial activity against Pf3D7 (in words) [2]: moderately active
Cc1cc(C(=O)OCC[C@@]23O[C@@H]2C[C@@H]2C[C@H]3C2(C)C)c2ccc(Cl)cc2n1 (stereo in doubt) [Compound 16, 2-((1S,2S,4R,6S)-7,7-dimethyl-3-oxatricyclo[4.1.1.0 2,4]octan-2-yl)ethyl-7-chloro-2-methylquinoline-4-carboxylate] | – | 1.9 | – | – | – | – | CC50 at 72 h ([5]; read-out: Hep G2 CC50): 76.8 ± 6.5 µM; EC50 [2, 7]: 40.4 ± 1.58 µM; Antiplasmodial activity against Pf3D7 (in words) [2]: weakly active but nonselective
C[C@@H]1CC[C@H]2[C@@H](C)C(=O)O[C@@H]3O[C@@]4(C)CC[C@@H]1[C@]32OO4 [Artemisinin, reference compound] | – | – | – | – | – | – | EC50 ([3]; Plasmodium falciparum, 72 h): 0.011 ± 0.005 µM; EC50 ([4]; Plasmodium falciparum, 72 h): 0.017 ± 0.005 µM
CCN(CC)CCCC(C)Nc1ccnc2cc(Cl)ccc12 (stereo not shown) [Chloroquine, reference compound] | – | – | – | – | – | – | EC50 [2, 8]: 0.004 ± 0.001 µM
CC1(C)[C@@H]2CC=C(CC(=O)Nc3ccnc4ccccc34)[C@H]1C2 [Compound 5, 2-((1S,5R)-6,6-dimethylbicyclo[3.1.1]hept-2-en-2-yl)-N-(quinolin-4-yl) Acetamide] | 3.98 ± 0.7 | 0.2 | 26.4 ± 1.7 µM | 13.9 ± 2.1 µM | weakly active | 23.4 ± 0.14 | PfK1 selectivity index (SI, CC50/EC50) [3]: 0.3; Antiplasmodial activity against NF54 strain (in words) [4]: weakly active; PfNF54 selectivity index (SI, CC50/EC50) [4]: 0.2
CC1(C)[C@@H]2CC=C(CC(=O)Nc3ccnc4cc(Cl)ccc34)[C@H]1C2 [Compound 6, N-(7-chloroquinolin-4-yl)-2-((1S,5R)-6,6-dimethylbicyclo[3.1.1]hept-2-en-2-yl) Acetamide] | 14.3 ± 1.2 | 0.8 | 17.1 ± 1.8 µM | 7.84 ± 0.57 µM | weakly active | 21.4 ± 1.7 | PfK1 selectivity index (SI, CC50/EC50) [3]: 1.8; Antiplasmodial activity against NF54 strain (in words) [4]: weakly active; PfNF54 selectivity index (SI, CC50/EC50) [4]: 0.7
CC1(C)[C@@H]2CC=C(CC(=O)Oc3ccnc4ccccc34)[C@H]1C2 [Compound 7, quinolin-4-yl-2-((1S,5R)-6,6-dimethylbicyclo[3.1.1]hept-2-en-2-yl) Acetate] | > 160 | – | > 50 µM | > 28 µM | – | > 50 | –
CC1(C)[C@@H]2CC=C(CC(=O)Oc3ccnc4cc(Cl)ccc34)[C@H]1C2 [Compound 8, 7-chloroquinolin-4-yl-2-((1S,5R)-6,6-dimethylbicyclo[3.1.1]hept-2-en-2-yl) Acetate] | > 160 | – | > 50 µM | 0.16 µM and 0.164 µM | sub-micromolar EC50 | 23.3 | PfK1 selectivity index (SI, CC50/EC50) [3]: > 976; PfNF54 selectivity index (SI, CC50/EC50) [4]: > 6.8
Cc1cc(OC(=O)CC2=CC[C@@H]3C[C@H]2C3(C)C)c2ccc(Cl)c(C)c2n1 [Compound 9, 7-chloro-2,8-dimethylquinolin-4-yl-2-((1S,5R)-6,6-dimethylbicyclo[3.1.1]hept-2-en-2-yl) Acetate] | > 160 | > 26 | 6.2 µM and 6.15 µM | – | – | – | –
CC1(C)[C@@H]2CC=C(CC(=O)Oc3cc(C(F)(F)F)nc4ccc(F)cc34)[C@H]1C2 [Compound 10, 6-fluoro-2-(trifluoromethyl)quinolin-4-yl-2-((1S,5R)-6,6-dimethylbicyclo[3.1.1]hept-2-en-2yl) Acetate] | 48.5 ± 1.12 | 2.3 | 21.4 ± 5.06 µM | – | – | – | –
Cc1c(Cl)ccc2c(OC(=O)CC3=CC[C@@H]4C[C@H]3C4(C)C)ccnc12 [Compound 11, 7-chloro-8-methylquinolin-4-yl-2-((1S,5R)-6,6-dimethylbicyclo[3.1.1]hept-2-en-2-yl) Acetate] | > 160 | >9.1 | 17.6 ± 5.27 µM | – | – | – | –
CC1(C)[C@@H]2CC=C(CC(=O)Oc3cc(C(F)(F)F)nc4c(C(F)(F)F)cccc34)[C@H]1C2 [Compound 12, 2,8-bis(trifluoromethyl)quinolin-4-yl-2-((1S,5R)-6,6-dimethylbicyclo[3.1.1]hept-2-en-2-yl) Acetate] | 21.8 ± 1.1 | 0.7 | 29.6 ± 0.93 µM | – | – | – | –
CC1(C)[C@H]2CC=C(CCOC(=O)c3cc4ccccc4[nH]3)[C@@H]1C2 [Compound 15, 2-((1R,5S)-6,6-dimethylbicyclo[3.1.1]hept-2-en-2-yl)ethyl-1H-indole-2-carboxylate] | – | > 8.5 | – | – | – | – | CC50 at 72 h ([5]; Hep G2 cells (human hepatocarcinoma cell line)): > 40 µM; EC50 [2, 8]: 4.71 ± 0.07 µM; Antiplasmodial activity against Pf3D7 (in words) [2]: moderately active
OC(c1cc(C(F)(F)F)nc2c(C(F)(F)F)cccc12)C1CCCCN1 (stereo not shown) [Mefloquine, reference compound] | – | – | – | – | – | – | EC50 ([3]; Plasmodium falciparum, 72 h): 0.117 ± 0.015 µM; EC50 ([4]; Plasmodium falciparum, 72 h): 0.003 ± 0.002 µM; EC50 [2, 7]: 2.33 ± 2.29 µM
